From US6514734B1, “Polybifunctional reagent having a polymeric backbone and latent reactive moieties and bioactive groups” (Surmodics, Inc., priority 1997, dated 2003)
Where no end group is shown, it is not given here.

How the values were obtained:
CPAE cells = experiment: Cell growth activity of immobilized peptides (MTT); assay type: cell-based, Calf; conditions: for growth on peptide polymers, times that observed on uncoated PS / growth on adsorbed peptides, times that observed on uncoated PS: wet immobilization protocol; for relative cell growth score, Immobil. Peptide Polymer: illuminated, dry immobilization protocol; for relative cell growth score, Immobil. Peptide Polymer / relative cell growth score, Adsorbed Peptide Reagent: relative to uncoated; for relative cell growth score, Adsorbed Peptide Reagent: nonilluminated
Method: The growth assays were conducted in 24-well PS culture plates. When PU and SR were evaluated, discs of each material (with or without coatings) were placed in the bottoms of the culture plate wells. When PS was evaluated, the bottoms of the wells were coated. For each assay, uncoated and peptide coated biomaterials (PS, PU, and SR) were seeded with CPAE cells at 1500 cells per well and allowed to proliferate in vitro for 4 to 7 days. Then, the media was aspirated and the cell growth was quantitated using MTT dye.
The following table summarizes results that compared cell growth on uncoated substrates, adsorbed peptides, and peptide polymers. As with the attachment assays, the relative numbers of cells growing on each peptide coated biomaterial was divided by the number of cells growing on the uncoated (UC) biomaterials to obtain a relative cell growth score. Each value represents the average of 1 to 4 different experiments, with each experiment being conducted with 3 or 4 replicates. The dry immobilization protocol described herein was used to immobilize all peptides evaluated. Immobil. Peptide Polymer refers to illuminated peptide polymer. Adsorbed Peptide Reagent refers to non illuminated peptide reagent. ND=not determined.
In addition to the peptides shown in the table above, C/H-II and HEP-III were also evaluated for growth on PS. With these two peptides, growth on adsorbed peptides was 1.0 and 1.1 times that observed on uncoated PS, and growth on peptide polymers was 10.5 and 13 times that observed on uncoated PS. These two peptides (polymers and reagent controls) were immobilized via the wet immobilization protocol. The results with C/H-II and HEP-III are the averages of 1and 2 experiments, respectively, with each experiment being conducted with 4 replicates.

[1] = system: biotin derivatized horseradish peroxidase (biotin-HRP); experiment: Streptavidin polymer coating on glass rods: binding of biotin-HRP; conditions: for Absorbance of Biotin-HRP: glass rods
Method: (§1) The organosilane primed glass rods were dipped into a solution of streptavidin polymer for 30 seconds. The glass rods were removed from the solution, allowed to air dry, and illuminated for 30 seconds with a Dymax lamp. Adsorption controls were prepared via the same protocol, except that they were not illuminated. Both type of coated rods were washed with PBS containing 0.05% Tween 20 to remove nonadherent streptavidin polymer.
(§2) Streptavidin is a receptor that binds strongly to biotin as its ligand. The activity of streptavidin polymer coating was evaluated by quantifying the binding of added biotin derivatized horseradish peroxidase (biotin-HRP, obtained from Pierce Chemical Company, Rockford, Ill.). The glass rods were incubated for one hour in a 9 μg/ml solution of biotin-HRP. The binding of underivatized HRP (added at 9 μg/mi) was evaluated as a control for nonspecific binding of HRP to the glass rods. The rods were then washed with PBS containing 0.05% Tween 20 to remove nonbound HRP, and the relative activity of bound HRP was evaluated with a TMB peroxidase substrate system (Kirkegaard and Perry Laboratory, Inc., Gaithersburg, Md.). HRP catalyzes the oxidation of TMB and produces a color that is quantitated spectrophotometrically at 405 nm. Each result is the average of 3 determinations.

underivatized HRP = biological target: T1, underivatized HRP (Armoracia rusticana, UniProt P00433); experiment: Streptavidin polymer coating on glass rods: nonspecific binding of underivatized HRP
T1 sequence (P00433 31-338): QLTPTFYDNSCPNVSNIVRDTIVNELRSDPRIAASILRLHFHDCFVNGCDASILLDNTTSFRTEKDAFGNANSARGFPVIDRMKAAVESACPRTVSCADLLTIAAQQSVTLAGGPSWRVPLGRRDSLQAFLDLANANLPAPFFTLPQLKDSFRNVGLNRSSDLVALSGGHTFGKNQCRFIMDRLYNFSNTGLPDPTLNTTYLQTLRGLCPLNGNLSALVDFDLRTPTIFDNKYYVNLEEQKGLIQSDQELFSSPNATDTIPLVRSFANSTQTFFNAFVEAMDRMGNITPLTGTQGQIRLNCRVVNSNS
Method: as §1, §2

[2] = system: Calf pulmonary artery endothelial (CPAE) cells; experiment: Cell attachment activity of immobilized peptides (MTT); assay type: cell-based; set-up: key: cells attached to coated ÷ cells attached to uncoated (MTT); conditions: relative to uncoated; for relative cell attachment score, Immobil. Peptide Polymer: illuminated; for relative cell attachment score, Adsorbed Peptide Reagent: nonilluminated
Method: Calf pulmonary artery endothelial (CPAE) cells were purchased from ATCC (American Type Culture Collection, Rockville, Md.) and cultured as indicated by ATCC. The attachment assays were conducted in 48-well PS culture plates. When PU and SR were evaluated, discs of each material (with or without coatings) were placed in the bottoms of the culture plate wells. When PS was evaluated, the bottoms of the wells were coated. For each assay, uncoated and peptide coated biomaterials (PS, PU, and SR) were seeded at 50,000 cells per well in serum free media containing 2 mg/ml of bovine serum albumin (BSA fraction V, from Sigma Chemical Company, St. Louis, Mo.). The cells were allowed to attach to each biomaterial for two hours. Then the unattached cells were removed by aspiration, and the wells were rinsed twice with Hank's Balanced Salt Solution (Celox Corp., Hopkins, Minn.). Finally, the attached cells were quantitated by the addition of culture media containing a metabolic dye, MTT [3-(4,5-dimethylthiazol-2-yl)-2,5-diphenyltetrazolium bromide] which is converted from a yellow tetrazolium salt into an insoluble, purple formazan in the presence of viable cells. After a two hour incubation in culture media containing MTT, the media was removed, and the formazan dye that had been deposited inside the viable cells was solubilized (with acidic isopropanol) and read on a spectrophotometer at 570 nm. The absorbance of the formazan is directly proportional to the number of attached, viable cells present per well.
The following table summarizes results of cell attachment assays comparing immobilized peptide polymers and adsorbed peptide reagent controls. In each case, the relative numbers of cells that attached to the peptide-coated biomaterials (as determined by MTT dye) were divided by the number of cells that attached to the uncoated (UC) biomaterials to obtain a relative cell attachment score. Each value represents the average of 1 to 4 different experiments, with each experiment being conducted with 3 or 4 replicates. The peptides were immobilized onto PS using the wet immobilization protocol described herein and the peptides were immobilized onto SR and PU via the dry immobilization protocol. Immobil. Peptide Polymer refers to illuminated peptide polymer. Adsorbed Peptide Reagent refers to nonilluminated peptide reagent. ND=not determined.

immunoglobulin G (IgG) = experiment: Activity of protein A polymer coatings: binding and elution of IgG from rabbit serum; conditions: for Fold greater IgG on protein A coating: versus uncoated control
Method: Protein A is a bacterial protein that binds specifically to the Fc region of immunoglobulin G (IgG) molecules. The activity of the protein A coating on each type of membrane was evaluated by assaying for binding by added IgG. Uncoated membranes were used as controls. For this assay, 2 ml of rabbit serum was diluted 1:5 in PBS and perfused through the coated membranes at 2-3 ml/min. The membranes were then washed with PBS to remove unbound IgG. The bound IgG was then eluted with 0.1 M glycine in 2% acetic acid. The amount of eluted IgG was determined by measuring the absorbance of the eluant at 280 nm and using an extinction coefficient (ε280) of 1.4 ml/cm-mg to calculate the mg of eluted IgG. Also the IgG that eluted from each membrane type was evaluated for purity by reduced SDS PAGE analysis. With the biomaterials coated with protein A polymer, the eluted protein was greater than 90% light and heavy chains of IgG. In contrast, the major protein that eluted from uncoated controls was albumin.
Three discs of each type (PSO or RC) were placed in a MAC-25 holder and evaluated using this procedure.

[3] = Polyurethane, dry immobilization protocol
[4] = Silicone Rubber, dry immobilization protocol

Question: How did the “growth on peptide polymers, times that observed on uncoated PS” value (CPAE cells) turn out when “C/H-II polymer: photoreactive polyacrylamide copolymer of C/H-II peptide monomer (SEQ ID NO: 10), BBA-APMA and acrylamide (CKNNQKSEPLIGRKKT; also: photoreactive polyacrylamide copolymer with BBA-APMA and acrylamide)” was run?
Answer: 10.5 times

Question: Which results are given for “streptavidin polymer: photoreactive polyacrylamide containing streptavidin ligands”?
Answer: peroxidase activity of adsorbed, fold less than covalent ([1]; biotin-HRP added): 3.5 fold; Absorbance of Biotin-HRP ([1]; adsorbed (nonilluminated)): 0.285; Absorbance of Biotin-HRP ([1]; covalent (photoimmobilized)): 1.005; Absorbance of HRP (underivatized HRP; adsorbed (nonilluminated)): 0.065; Absorbance of HRP (underivatized HRP; covalent (photoimmobilized)): 0.056

Question: How did the “relative cell attachment score, Immobil. Peptide Polymer” value ([2]; Polystyrene, wet immobilization protocol) turn out when “F-9 polymer: photoreactive polyacrylamide copolymer of F-9 peptide monomer (SEQ ID NO:11), BBA-APMA and acrylamide (RYVVLPRPVCFEKK; also: photoreactive polyacrylamide copolymer with BBA-APMA and acrylamide)” was run?
Answer: 5.7

Question: And the “relative cell attachment score, Immobil. Peptide Polymer” value [2, 3]?
Answer: 1.9

Question: And the “relative cell attachment score, Immobil. Peptide Polymer” value [2, 4]?
Answer: 0.9

Question: What about the “relative cell growth score, Immobil. Peptide Polymer” value (CPAE cells; Polystyrene, 4 to 7 days) of the same substance?
Answer: 14.8

Question: What about the “relative cell growth score, Immobil. Peptide Polymer” value (CPAE cells; Polyurethane) of the same substance?
Answer: 7.7

Question: What about the “relative cell growth score, Immobil. Peptide Polymer” value (CPAE cells; Silicone Rubber) of the same substance?
Answer: 2.4

Question: For “Cys Lys Gly Glu Phe Try Phe Asp Leu Arg Leu Lys Gly Asp Lys [HEP-III reagent control, reference compound]”, which “growth on adsorbed peptides, times that observed on uncoated PS” value (CPAE cells) is on record?
Answer: 1.1 times

Question: “HEP-III polymer: photoreactive polyacrylamide copolymer of HEP-III peptide monomer (SEQ ID NO: 12), BBA-APMA and acrylamide (CKGEFYFDLRLKGDK; also: photoreactive polyacrylamide copolymer with BBA-APMA and acrylamide)” was tested. Which “growth on peptide polymers, times that observed on uncoated PS” value (CPAE cells) did it give?
Answer: 13 times

Question: What does the source list for “RYVVLPRPVCFEKK [F-9 reagent control, F-9 peptide not incorporated into polymer, laminin-derived, reference compound]”?
Answer: relative cell attachment score, Adsorbed Peptide Reagent ([2]; Polystyrene): 0.8; relative cell growth score, Adsorbed Peptide Reagent (CPAE cells; Polystyrene): 1.0; relative cell growth score, Adsorbed Peptide Reagent (CPAE cells; Polyurethane): 1.7; relative cell growth score, Adsorbed Peptide Reagent (CPAE cells; Silicone Rubber): 1.7

Question: What does the source list for “GRGDSPKKC [RGD reagent control, reference compound]”?
Answer: relative cell attachment score, Adsorbed Peptide Reagent ([2]; Polystyrene): 1.4; relative cell attachment score, Adsorbed Peptide Reagent ([2]; Silicone Rubber): 1.1; relative cell growth score, Adsorbed Peptide Reagent (CPAE cells; Polystyrene): 1.2; relative cell growth score, Adsorbed Peptide Reagent (CPAE cells; Polyurethane): 1.7; relative cell growth score, Adsorbed Peptide Reagent (CPAE cells; Silicone Rubber): 1.1

Question: Which IgG eluted (immunoglobulin G (IgG); Polysulfone membrane, average of 10 cycles) does the source give for “protein A polymer: photoreactive polyacrylamide containing recombinant staphylococcal protein A ligands” here?
Answer: 0.680 mg/disc

Question: What about the “Fold greater IgG on protein A coating” value (immunoglobulin G (IgG); Polysulfone) of the same substance?
Answer: 34

Question: What about the IgG eluted (immunoglobulin G (IgG); Regenerated cellulose membrane, average of 3 cycles) of the same substance?
Answer: 0.383 mg/disc

Question: And the “Fold greater IgG on protein A coating” value (immunoglobulin G (IgG); Regenerated cellulose)?
Answer: 64

Question: “Cys Lys Asn Asn Gln Lys Ser GIu Pro Leu Ile Gly Arg Lys Lys Thr [C/H-II reagent control, reference compound]” was tested. Which “growth on adsorbed peptides, times that observed on uncoated PS” value (CPAE cells) did it give?
Answer: 1.0 times

Question: How did the “relative cell attachment score, Adsorbed Peptide Reagent” value ([2]; Silicone Rubber) turn out when “CKKWQPPRARI [C/H-V reagent control, C/H-V peptide not incorporated into polymer, fibronectin-derived, reference compound]” was run?
Answer: 0.4

Question: And the “relative cell growth score, Adsorbed Peptide Reagent” value (CPAE cells; Polystyrene)?
Answer: 1.0

Question: And the “relative cell growth score, Adsorbed Peptide Reagent” value (CPAE cells; Polyurethane)?
Answer: 0.7

Question: What about the “relative cell growth score, Adsorbed Peptide Reagent” value (CPAE cells; Silicone Rubber) of the same substance?
Answer: 2.0

Question: With “C/H-V polymer: photoreactive polyacrylamide copolymer of C/H-V peptide monomer (SEQ ID NO: 9), BBA-APMA and acrylamide (CKKWQPPRARI; also: photoreactive polyacrylamide copolymer with BBA-APMA and acrylamide)” as the substance, how does the “relative cell attachment score, Immobil. Peptide Polymer” value [2, 3] read?
Answer: 1.4

Question: And the “relative cell attachment score, Immobil. Peptide Polymer” value [2, 4]?
Answer: 1.3

Question: What about the “relative cell growth score, Immobil. Peptide Polymer” value (CPAE cells; Polystyrene, 4 to 7 days) of the same substance?
Answer: 11.3

Question: And the “relative cell growth score, Immobil. Peptide Polymer” value (CPAE cells; Polyurethane)?
Answer: 3.9

Question: And the “relative cell growth score, Immobil. Peptide Polymer” value (CPAE cells; Silicone Rubber)?
Answer: 1.0
